For test [1], the target named is biotinylated human Gal-3 (hGal-3) (Homo sapiens, UniProt P17931). Put plainly: Competitive binding assay: biotinylated hGal-3 binding to microplate-adsorbed asialofetuin (ASF), spectrophotometric. The method, boiled down: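 Competitive binding of biotinylated hGal-3 to plate-adsorbed asialofetuin was measured with serially diluted compounds over 3 h at 4° C. Bound protein was detected with streptavidin-peroxidase and ABTS substrate by absorbance. IC50 values are means of several measurements.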

The target in another test is human Gal-1 (hGal-1) (Homo sapiens, UniProt P09382). The test is described as follows: Competitive binding assay: biotinylated hGal-1 binding to microplate-adsorbed asialofetuin (ASF), spectrophotometric. The following applies: hGal-1 binding to asialofetuin; Table 15; R and S epimers of selected Examples also listed; read-out: IC50 (Galectin-1 inhibition). The method, boiled down: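 Biotinylated hGal-1 (300-1000 ng/mL) incubated with compound on asialofetuin-coated plates 3 hours at 4 °C, washed, then streptavidin-peroxidase (80 ng/mL) 1 hour at 4 °C. ABTS substrate read spectrophotometrically; IC50 reported as mean of several measurements.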

Where [2] appears, read: Gal-3 inhibition, Table 4, read-out: IC50.
Where [3] appears, read: Gal-3 inhibition, Table 5, read-out: IC50.
The mark [4] stands for this setting: Gal-3 inhibition, Table 3, read-out: IC50.
Where [5] appears, read: Table 12, hGal-3, read-out: IC50 (Gal-3 inhibition).

Like-named read-outs stand apart in the source and are kept apart here.

16 molecules from US12410208B2, “(2-acetamidyl)thio-beta-D-galactopyranoside derivatives” (Idorsia Pharmaceuticals Ltd, priority 2020, dated 2025) can be followed below.

Sequence of human Gal-1 (hGal-1) (P09382 whole entry): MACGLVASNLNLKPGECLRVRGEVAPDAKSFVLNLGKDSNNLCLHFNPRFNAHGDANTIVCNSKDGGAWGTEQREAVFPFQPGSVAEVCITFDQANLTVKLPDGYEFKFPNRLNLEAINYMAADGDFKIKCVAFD
Sequence of biotinylated human Gal-3 (hGal-3) (P17931 whole entry): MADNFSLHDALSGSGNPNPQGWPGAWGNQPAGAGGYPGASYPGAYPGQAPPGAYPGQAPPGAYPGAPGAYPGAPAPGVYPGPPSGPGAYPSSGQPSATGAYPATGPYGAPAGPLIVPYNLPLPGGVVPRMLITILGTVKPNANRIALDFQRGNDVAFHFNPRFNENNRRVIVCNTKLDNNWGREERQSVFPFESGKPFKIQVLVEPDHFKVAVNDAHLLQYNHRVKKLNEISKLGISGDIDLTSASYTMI

As a reminder, the IC50 is the concentration at which inhibition is half-maximal. Consider `CN(CCC1CC1)C(=O)C(S[C@@H]1O[C@H](CO)[C@H](O)[C@H](n2cc(-c3cc(F)c(F)c(F)c3)nn2)[C@H]1O)C1(O)CCOCC1` (stereo partly drawn) [Example 2.41.217., N-(2-Cyclopropylethyl)-2-(((2S,3R,4S,5R,6R)-3,5-dihydroxy-6-(hydroxymethyl)-4-(4-(3,4,5-trifluorophenyl)-1H-1,2,3-triazol-1-yl)tetrahydro-2H-pyran-2-yl)thio)-2-(4-hydroxytetrahydro-2H-pyran-4-yl)-N-methylacetamide], for which the IC50 in test [1] (setting [2]) turned out to be 60 nM; at human Gal-1 (hGal-1), 220 nM.

As to `O=C([C@@H](S[C@@H]1O[C@H](CO)[C@H](O)[C@H](n2cc(-c3cc(F)c(F)c(F)c3)nn2)[C@H]1O)C1(O)CCC(F)(F)CC1)N1CC(F)(F)C1` [Example 2.44.227S., (S)-2-(4,4-Difluoro-1-hydroxycyclohexyl)-1-(3,3-difluoroazetidin-1-yl)-2-(((2S,3R,4S,5R,6R)-3,5-dihydroxy-6-(hydroxymethyl)-4-(4-(3,4,5-trifluorophenyl)-1H-1,2,3-triazol-1-yl)tetrahydro-2H-pyran-2-yl)thio)ethan-1-one], the IC50 in test [1] (setting [3]) came to 100 nM; on human Gal-1 (hGal-1), 230 nM.

`CN(CC1CC1)C(=O)[C@@H](S[C@@H]1O[C@H](CO)[C@H](O)[C@H](n2cc(-c3cc(F)c(F)c(F)c3)nn2)[C@H]1O)C1(O)CCC1` [Example 2.34.218S., (S)-N-(Cyclopropylmethyl)-2-(((2S,3R,4S,5R,6R)-3,5-dihydroxy-6-(hydroxymethyl)-4-(4-(3,4,5-trifluorophenyl)-1H-1,2,3-triazol-1-yl)tetrahydro-2H-pyran-2-yl)thio)-2-(1-hydroxycyclobutyl)-N-methylacetamide]: the IC50 was found to be 60 nM in test [1] (setting [3]) and 70 nM at human Gal-1 (hGal-1).

For `CCN(C)C(=O)C(S[C@@H]1O[C@H](CO)[C@H](O)[C@H](n2cc(-c3cc(F)c(C)c(F)c3)nn2)[C@H]1O)C1(O)CCOCC1` (stereo partly drawn) [Example 3.41.203., 2-(((2S,3R,4S,5R,6R)-4-(4-(3,5-Difluoro-4-methylphenyl)-1H-1,2,3-triazol-1-yl)-3,5-dihydroxy-6-(hydroxymethyl)tetrahydro-2H-pyran-2-yl)thio)-N-ethyl-2-(4-hydroxytetrahydro-2H-pyran-4-yl)-N-methylacetamide], the IC50 in test [1] (Table 11, hGal-3, read-out: IC50 (Gal-3 inhibition)) came out at 40 nM; at human Gal-1 (hGal-1) it was 680 nM.

With `CN(C)C(=O)C(S[C@@H]1O[C@H](CO)[C@H](O)[C@H](n2cc(-c3cc(F)c(F)c(F)c3)nn2)[C@H]1O)C(C)(C)O` (stereo partly drawn) [Example 2.31.201., 2-(((2S,3R,4S,5R,6R)-3,5-Dihydroxy-6-(hydroxymethyl)-4-(4-(3,4,5-trifluorophenyl)-1H-1,2,3-triazol-1-yl)tetrahydro-2H-pyran-2-yl)thio)-3-hydroxy-N,N,3-trimethylbutanamide], the IC50 in test [1] (setting [4]) worked out at 270 nM; on human Gal-1 (hGal-1), 1920 nM.

For the molecule `CCN(C)C(=O)C(S[C@@H]1O[C@H](CO)[C@H](O)[C@H](n2cc(-c3cc(F)c(F)c(F)c3)nn2)[C@H]1O)C(C)C` (stereo partly drawn) [Example 2.53.203., 2-(((2S,3R,4S,5R,6R)-3,5-dihydroxy-6-(hydroxymethyl)-4-(4-(3,4,5-trifluorophenyl)-1H-1,2,3-triazol-1-yl)tetrahydro-2H-pyran-2-yl)thio)-N-ethyl-N,3-dimethylbutanamide, reference compound], the IC50 in test [1] (Gal-3 inhibition, Table 1 (Reference Examples), read-out: IC50) is 7800 nM; at human Gal-1 (hGal-1) it was 35900 nM.

On to `CO[C@@H]1[C@@H](n2cc(-c3cc(F)c(F)c(F)c3)nn2)[C@@H](O)[C@@H](CO)O[C@H]1SC(C(=O)NC(C)C)C1(O)CCC(F)(F)CC1` (stereo partly drawn) [Example 2.44.251.I., 2-(4,4-Difluoro-1-hydroxycyclohexyl)-2-(((2S,3R,4S,5R,6R)-5-hydroxy-6-(hydroxymethyl)-3-methoxy-4-(4-(3,4,5-trifluorophenyl)-1H-1,2,3-triazol-1-yl)tetrahydro-2H-pyran-2-yl)thio)-N-isopropylacetamide], for which the IC50 worked out at 90 nM in test [1] (setting [5]) and 190 nM on human Gal-1 (hGal-1).

For the molecule `CCN(C)C(=O)[C@H](S[C@@H]1O[C@H](CO)[C@H](O)[C@H](n2cc(-c3cc(F)c(F)c(F)c3)nn2)[C@H]1O)C1(O)CCC1` [Example 2.34.203R., (R)-2-(((2S,3R,4S,5R,6R)-3,5-Dihydroxy-6-(hydroxymethyl)-4-(4-(3,4,5-trifluorophenyl)-1H-1,2,3-triazol-1-yl)tetrahydro-2H-pyran-2-yl)thio)-N-ethyl-2-(1-hydroxycyclobutyl)-N-methylacetamide], the IC50 in test [1] (setting [3]) was 3580 nM; on human Gal-1 (hGal-1), 28300 nM.

With `CCN(C)C(=O)C(S[C@@H]1O[C@H](CO)[C@H](O)[C@H](n2cc(-c3cc(F)c(F)c(F)c3)nn2)[C@H]1O)C1(O)CCOCC1` (stereo partly drawn) [Example 2.41.203., 2-(((2S,3R,4S,5R,6R)-3,5-Dihydroxy-6-(hydroxymethyl)-4-(4-(3,4,5-trifluorophenyl)-1H-1,2,3-triazol-1-yl)tetrahydro-2H-pyran-2-yl)thio)-N-ethyl-2-(4-hydroxytetrahydro-2H-pyran-4-yl)-N-methylacetamide], the IC50 in test [1] (setting [3]) was found to be 90 nM; on human Gal-1 (hGal-1), 420 nM.

As to `CN(CCC1CCOCC1)C(=O)[C@@H](S[C@@H]1O[C@H](CO)[C@H](O)[C@H](n2cc(-c3cc(F)c(F)c(F)c3)nn2)[C@H]1O)C1(O)CCOCC1` [Example 2.41.216S., (S)-2-(((2S,3R,4S,5R,6R)-3,5-Dihydroxy-6-(hydroxymethyl)-4-(4-(3,4,5-trifluorophenyl)-1H-1,2,3-triazol-1-yl)tetrahydro-2H-pyran-2-yl)thio)-2-(4-hydroxytetrahydro-2H-pyran-4-yl)-N-methyl-N-(2-(tetrahydro-2H-pyran-4-yl)ethyl)acetamide], the IC50 is 20 nM in test [1] (setting [2]) and 110 nM on human Gal-1 (hGal-1).

With `CCN(C)C(=O)C(S[C@@H]1O[C@H](CO)[C@H](O)[C@H](n2cc(-c3cc(F)c(F)c(F)c3)nn2)[C@H]1O)C1(O)CCN(C(=O)OC)CC1` (stereo partly drawn) [Example 2.50.203., Methyl 4-(1-(((2S,3R,4S,5R,6R)-3,5-dihydroxy-6-(hydroxymethyl)-4-(4-(3,4,5-trifluorophenyl)-1H-1,2,3-triazol-1-yl)tetrahydro-2H-pyran-2-yl)thio)-2-(ethyl(methyl)amino)-2-oxoethyl)-4-hydroxypiperidine-1-carboxylate], the IC50 in test [1] (Table 8, hGal-3, read-out: IC50 (Gal-3 inhibition)) stood at 70 nM; at human Gal-1 (hGal-1), 100 nM.

In the case of `CO[C@@H]1[C@@H](n2cc(-c3cc(F)c(F)c(F)c3)nn2)[C@@H](O)[C@@H](CO)O[C@H]1SC(C(=O)N(C)CCC1CC1)C1(O)CCC(F)(F)CC1` (stereo partly drawn) [Example 2.44.217.I., N-(2-Cyclopropylethyl)-2-(4,4-difluoro-1-hydroxycyclohexyl)-2-(((2S,3R,4S,5R,6R)-5-hydroxy-6-(hydroxymethyl)-3-methoxy-4-(4-(3,4,5-trifluorophenyl)-1H-1,2,3-triazol-1-yl)tetrahydro-2H-pyran-2-yl)thio)-N-methylacetamide], the half-maximal inhibitory concentration (IC50) in test [1] (setting [5]) came out at 50 nM; on human Gal-1 (hGal-1) it was 110 nM.

For the molecule `CC(C)(O)C(S[C@@H]1O[C@H](CO)[C@H](O)[C@H](n2cc(-c3cc(F)c(F)c(F)c3)nn2)[C@H]1O)C(=O)N1CCCCC1` (stereo partly drawn) [Example 2.31.208., 2-(((2S,3R,4S,5R,6R)-3,5-Dihydroxy-6-(hydroxymethyl)-4-(4-(3,4,5-trifluorophenyl)-1H-1,2,3-triazol-1-yl)tetrahydro-2H-pyran-2-yl)thio)-3-hydroxy-3-methyl-1-(piperidin-1-yl)butan-1-one], the IC50 in test [1] (Table 6, hGal-3, read-out: IC50 (Gal-3 inhibition)) turned out to be 70 nM; at human Gal-1 (hGal-1), 30 nM.

For the molecule `CC1CCN1C(=O)C(S[C@@H]1O[C@H](CO)[C@H](O)[C@H](n2cc(-c3cc(F)c(F)c(F)c3)nn2)[C@H]1O)C(C)(C)O` (stereo partly drawn) [Example 2.31.204., 2-(((2S,3R,4S,5R,6R)-3,5-Dihydroxy-6-(hydroxymethyl)-4-(4-(3,4,5-trifluorophenyl)-1H-1,2,3-triazol-1-yl)tetrahydro-2H-pyran-2-yl)thio)-3-hydroxy-3-methyl-1-(2-methylazetidin-1-yl)butan-1-one], the IC50 in test [1] (setting [4]) amounted to 140 nM; at human Gal-1 (hGal-1), 2800 nM.

On to `CN(CC(C)(C)F)C(=O)[C@@H](S[C@@H]1O[C@H](CO)[C@H](O)[C@H](n2cc(-c3cc(F)c(F)c(F)c3)nn2)[C@H]1O)C1(O)CCC1` [Example 2.34.222S., (S)-2-(((2S,3R,4S,5R,6R)-3,5-Dihydroxy-6-(hydroxymethyl)-4-(4-(3,4,5-trifluorophenyl)-1H-1,2,3-triazol-1-yl)tetrahydro-2H-pyran-2-yl)thio)-N-(2-fluoro-2-methylpropyl)-2-(1-hydroxycyclobutyl)-N-methylacetamide], for which the 50% inhibitory concentration (IC50) in test [1] (setting [3]) is 90 nM; on human Gal-1 (hGal-1), 110 nM.

In the case of `O=C([C@@H](S[C@@H]1O[C@H](CO)[C@H](O)[C@H](n2cc(-c3cc(F)c(F)c(F)c3)nn2)[C@H]1O)C1(O)CCC1)N1CCCCC1` [Example 2.34.208S., (S)-2-(((2S,3R,4S,5R,6R)-3,5-Dihydroxy-6-(hydroxymethyl)-4-(4-(3,4,5-trifluorophenyl)-1H-1,2,3-triazol-1-yl)tetrahydro-2H-pyran-2-yl)thio)-2-(1-hydroxycyclobutyl)-1-(piperidin-1-yl)ethan-1-one], the IC50 (in test [1] (setting [3]); at human Gal-1 (hGal-1)) was 140 nM throughout.
